Values joined by “and” are separate entries in the source; they are usually repeats but may differ in a detail not shown here. Equal values may be shown once. Active and inactive are the calls of the source. The rule behind the calls is not given here.

The first test deals with Prostaglandin E2 receptor EP2 subtype (Homo sapiens) (UniProt P43116). The experiment in a line: compounds shifting PGE2 potency at EP2 – cell-based, human EP2, PGE2 EC50 shift, dose response (AID 1421). To be noted: EP2-expressing cells, PGE2 EC50 shift by compound.
Chain of Prostaglandin E2 receptor EP2 subtype (Homo sapiens) (P43116 whole entry, looked up): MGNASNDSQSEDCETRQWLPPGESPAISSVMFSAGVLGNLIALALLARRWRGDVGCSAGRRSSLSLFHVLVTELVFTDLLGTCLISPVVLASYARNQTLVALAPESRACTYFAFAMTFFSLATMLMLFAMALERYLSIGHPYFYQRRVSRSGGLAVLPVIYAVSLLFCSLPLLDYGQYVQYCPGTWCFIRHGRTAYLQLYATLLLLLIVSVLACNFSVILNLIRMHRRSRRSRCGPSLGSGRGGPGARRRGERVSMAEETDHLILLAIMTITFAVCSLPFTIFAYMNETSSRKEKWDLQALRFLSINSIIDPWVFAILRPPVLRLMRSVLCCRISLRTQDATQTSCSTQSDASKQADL
As for `Cc1nn2c(c1-c1ccccc1)N=C(c1ccco1)CC2c1ccccc1` (centres undefined), the result was active.
On to `Cc1ccc(O)c(C2=Nc3ccccc3N=C(c3cccs3)C2)c1`, for which the outcome was active.
On to `C=CCSc1nc2sc(C)c(C)c2c(=O)n1CC=C`, for which the outcome was active.
The same measure, in the same setting: next, `COc1nc(-c2ccccc2)nnc1-c1ccccc1`: “active”.
Regarding `O=C(Nc1ccccc1N1CCN(c2ccccc2)CC1)C12CC3CC(CC(C3)C1)C2`, the outcome was active.

Still in this test, the particulars now being: EP2-expressing cells, PGE2 EC50 shift by compound; measured here: PGE2 EC50 at 6.7 uM compound.
`CC(OC(=O)c1oc2ccccc2c1COc1ccccc1)C(=O)NC(N)=O` (centres undefined): the PGE2 EC50 with compound stood at 2.83 nM.
Turning to `CC(=O)N1c2ccccc2C(C)CC12CCCCC2` (centres undefined), the PGE2 EC50 with compound turned out to be 2.48 nM.
For the molecule `COc1cccc2[nH]c3c(N4CC(C)CC(C)C4)ncnc3c12` (centres undefined), the PGE2 EC50 with compound is 1.15 nM.
`CN(CC(=O)Nc1ccccc1-c1ccccc1)Cc1ccccc1Cl`: the PGE2 EC50 with compound stood at 0.95 nM.
With `CC1Cc2ccccc2N1C(=O)CSc1nnc(Cc2ccccc2)n1CCc1ccccc1` (centres undefined), the PGE2 EC50 with compound was found to be 1.14 nM.
Take `O=C(O)c1oc(C(=O)O)c(C(=O)O)c1C(=O)O`: the PGE2 EC50 with compound was 1.51 nM.
In the case of `Cc1nn2c(c1-c1ccccc1)N=C(c1ccco1)CC2c1ccccc1` (centres undefined), the PGE2 EC50 with compound was 0.8 nM.
Take `Cc1ccc(O)c(C2=Nc3ccccc3N=C(c3cccs3)C2)c1`: the PGE2 EC50 with compound amounted to 1.17 nM.
Same read-out and setting: as for `COc1ccccc1C(CC(=O)c1ccccc1)CC(=O)c1ccccc1`, the figure is 2.56 nM; as for `c1ccc(-c2noc(CN3CCN(C(c4ccccc4)c4ccccc4)CC3)n2)cc1`, 0.73 nM.
Take `C=CCn1c(CCc2cc(C(C)(C)C)c(O)c(C(C)(C)C)c2)n[nH]c1=S`: the PGE2 EC50 with compound is 1.14 nM.
As for `CCOC(=O)c1sc(NC(=O)C(CC)OC(=O)C(CC(C)C)NC(=O)c2ccccc2)nc1C` (centres undefined), the PGE2 EC50 with compound was 1.22 nM.
Turning to `COc1cc(C)c(NC(c2ccccc2)c2ccccc2)cc1OC`, the PGE2 EC50 with compound worked out at 1.5 nM.
`COc1cccc2[nH]c3c(N4CCCCC4)ncnc3c12`: the PGE2 EC50 with compound was 0.6 nM.
For the molecule `CCNc1nc(NCC)nc(SCCOc2ccc(C)cc2)n1`, the PGE2 EC50 with compound was determined as 0.7 nM.
In the case of `C=CCSc1nc2sc(C)c(C)c2c(=O)n1CC=C`, the PGE2 EC50 with compound came to 0.83 nM.
As to `Cc1cccc(OC(=O)c2sc(Cl)nc2C)c1`, the PGE2 EC50 with compound is 0.83 nM.
The same measure, in the same setting: next, `O=C(O)CCSc1ccc2ccccc2n1`: 2.87 nM and 2.98 nM; `O=C(Nc1ccccc1)/C(=C/c1ccccc1)c1ccccc1`: 2.56 nM; `C=CCc1cc(C=C2C(=O)N(C)C(=O)N(C)C2=O)cc(OCC)c1OCc1ccccc1`: 0.94 nM.
Same read-out and setting: as for `CC(C)(C)C1CCc2onc(C(=O)Nc3cccnc3)c2C1` (centres undefined), the figure is 1.31 nM; as for `CC[C@@H]1Cc2cc(O)ccc2C2=C1c1ccc(O)cc1C[C@H]2CC`, 0.3 nM.
For the molecule `COc1ccc(-c2cc(C(F)(F)F)n3nc(C(=O)N(C)Cc4ccccc4)cc3n2)cc1OC`, the PGE2 EC50 with compound is 1.03 nM.
On to `Cc1ccccc1Nc1cccc2nonc12`, for which the PGE2 EC50 with compound came to 0.64 nM.
The same measure, in the same setting: as for `CC(C)(Oc1ccc(Cl)cc1)C(=O)N(Cc1ccccc1)c1ccccn1`, the figure is 1.07 nM; as for `CCOc1ccccc1Cn1c(=O)sc2ccccc21`, 2.65 nM.
As for `Cn1c(=O)c2c(SC3CCCC3)nc(C3CC3)nc2n(C)c1=O`, the PGE2 EC50 with compound turned out to be 0.61 nM.
For `CCSc1ccccc1C(=O)n1nnc2ccccc21`, the PGE2 EC50 with compound came to 1.77 nM.
On to `COC(=O)C1=C(C)N(C)C(C)=C(C(=O)OC)C1c1cccc(Br)c1`, for which the PGE2 EC50 with compound amounted to 0.97 nM.
Same read-out and setting: next, `Cc1ccc(S(=O)(=O)N2c3ccccc3OCC2C(C)(C)C)cc1` (centres undefined): 2.69 nM; `COCC(=O)Nc1sc2c(c1C(=O)OC)CCC(C)C2` (centres undefined): 1.32 nM; `CCN(CC)C(=O)Cn1cc(C(=O)C(=O)NCc2ccco2)c2ccccc21`: 1.55 nM.
On to `Nc1c(C(=O)Nc2ccccc2F)sc2nc(Cc3ccccc3)cc(C(F)(F)F)c12`, for which the PGE2 EC50 with compound stood at 0.62 nM.
Consider `CCOC(=O)c1ccc(CN(Cc2ccc(C)cc2)S(=O)(=O)c2cccc([N+](=O)[O-])c2)cc1`, for which the PGE2 EC50 with compound was found to be 1.62 nM.
Regarding `COc1nc(-c2ccccc2)nnc1-c1ccccc1`, the PGE2 EC50 with compound came to 1.05 nM.
Turning to `O=C(CNCc1ccccc1Cl)Nc1ccccc1N1CCCCC1`, the PGE2 EC50 with compound turned out to be 0.64 nM.
On to `COc1ccc(-c2csc3nc(C)nc(N4CCC(C)CC4)c23)cc1OC`, for which the PGE2 EC50 with compound amounted to 0.95 nM.
Still for that read-out and setting: next, `O=S1(=O)N=C(N(CCO)/N=C/C=C/c2ccccc2)c2ccccc21`: 2.08 nM; `O=C(Nc1ccccc1N1CCN(c2ccccc2)CC1)C12CC3CC(CC(C3)C1)C2`: 2.52 nM.
With `CCOC(=O)C1=C(C)N(C)C(C)=C(C(=O)OCC)C1c1ccsc1`, the PGE2 EC50 with compound came out at 0.79 nM.
Regarding `c1ccc(CCc2ccccc2-c2nc(-c3cccnc3)no2)cc1`, the PGE2 EC50 with compound was determined as 0.84 nM.
On the same count and under the same terms, next, `COC(=O)c1ccccc1NC(=O)c1cnn2c(C(F)F)cc(C3CC3)nc12`: 1.17 nM; `CCn1c2ccc(Cl)cc2c2nc3ccccc3nc21`: 0.98 nM; `CCOP(=O)(OCC)c1nc(-c2ccccc2)oc1NCc1ccccc1`: 1.04 nM.

For the origin of these results see PubChem BioAssay AID1421 (Emory University Molecular Libraries Screening Center, 2008).
